Assay results as given in US8337858B2, “Extracts of Aphanizomenon Flos Aquae and nutritional, cosmetic and pharmaceutical compositions containing the same” (Nutratec S.R.L., priority 2006, dated 2012).
Where two headings read alike, the source gives them in different places.

Key:
[1] = ORAC (Oxygen Radical Absorbance Capacity) assay with fluorescein and AAPH; assay type: biochemical; conditions: for ORACFL value expressed per mg: recalculated from Ou et al., 2001; for ORAC value: fluorescein, AAPH 4 mM, 37° C.
Method: The ORAC assay was carried out at 37° C. on a FLUOstar OPTIMA spectrofluorimeter (BGM LABTECH, Germany) at 485 nm excitation and 520 nm emission, using the method of Ou et al. (32) with minor modifications. Briefly, in the final assay mixture, fluorescein (FL) (0.05 μM) was used as a target of free radical attack, with AAPH (4 mM) as a peroxyl radical generator. Trolox (1 μM) was used as a control standard and phosphate buffer as a blank. The concentrations of tested compounds in the assay mixture ranged from 0.025 μM to 2 μM. All substances were dissolved and diluted with 75 mM Na-phosphate buffer pH 7; PCB solution was made by dissolving the compound first in ethanol and then bringing the solution to the desired concentration with the buffer. All samples were run in triplicate. Fluorescence was recorded every 5 min after AAPH was added. Final results (ORAC values) were calculated using the differences in the areas under the fluorescence decay curves (AUC) between the sample and blank and expressed as Trolox equivalents: ORAC value=[(AUCsample−AUCblank)/(AUCtrolox−AUCblank)]×(molaritytrolox/molaritysample)
To evaluate the antioxidant capacity of the extract in terms of the ORAC test, we used the same methodology we used to test the ORAC for PC and PCB. In order to test both the water soluble and the lipid soluble components of the AFA extract, we first prepared the two water and lipid soluble extracts, as follows.
Preparation of the Water Soluble Extract • Weigh 10 mg of extract in 1 ml of distilled water and homogenize for 1 min through a mechanical potter. • Centrifuge at 2500 rpm for 10′ at 4° C. to remove cellular debris. • Collect the supernatant and resuspend the pellet in 1 ml of water. • Homogenize for 1 min with a mechanical potter. • Centrifuge at 2500 rpm for 10′ at 4° C. • Collect the supernatant and mix with that obtained from the first water extraction. • Preserve the water extract (with a blue color for the presence of the PC) at +4 o-20° C.
Preparation of the Lipid Soluble Extract • Resuspend the pellet obtained from the previous extraction in 1 ml of acetone. • Homogenize for 1 min with a mechanical potter. • Centrifuge at 2500 rpm for 10′ at 4° C. • Collect the supernatant and resuspend the pellet in 1 ml of acetone. • Homogenize for 1 min with a mechanical potter. • Centrifuge at 2500 rpm for 10′ at 4° C. • Collect the supernatant and mix with that obtained from the first extraction with acetone. • Preserve the lipophilic extract (with an orange color for the presence of carotenes) at +4°-20° C.

[2] = Ou et al., 2001; cited from earlier work
COX-2 = target: T1, COX-2 (Homo sapiens, UniProt P35354); test: COX Inhibitor Screening Assay (Cayman), COX-2; assay type: biochemical; conditions: 0-15 μM
T1 construct: purchased Cayman
T1 sequence (P35354 18-604): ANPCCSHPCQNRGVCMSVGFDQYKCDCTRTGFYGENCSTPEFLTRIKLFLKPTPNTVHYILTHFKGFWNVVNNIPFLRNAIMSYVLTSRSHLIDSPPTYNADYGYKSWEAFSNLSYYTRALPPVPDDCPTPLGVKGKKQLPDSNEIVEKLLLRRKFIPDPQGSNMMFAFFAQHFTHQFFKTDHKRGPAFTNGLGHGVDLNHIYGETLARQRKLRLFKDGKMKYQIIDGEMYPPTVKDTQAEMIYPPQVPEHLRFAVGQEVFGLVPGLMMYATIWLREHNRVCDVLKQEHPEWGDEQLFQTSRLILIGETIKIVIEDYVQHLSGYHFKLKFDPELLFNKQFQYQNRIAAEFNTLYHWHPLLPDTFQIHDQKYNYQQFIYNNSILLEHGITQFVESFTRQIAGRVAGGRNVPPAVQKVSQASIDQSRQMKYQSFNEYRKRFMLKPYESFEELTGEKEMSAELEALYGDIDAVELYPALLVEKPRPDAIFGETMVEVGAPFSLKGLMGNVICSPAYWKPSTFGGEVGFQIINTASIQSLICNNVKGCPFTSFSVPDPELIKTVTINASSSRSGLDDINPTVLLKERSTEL
Method: (§1) Given that the phycocyanins from Klamath AFA algae are different from the ones from Spirulina, ands that no test has ever been done on their effect on the COX enzymes, we decided to perform such test through the immunoenzymatic kit “COX Inhibitor Screening Assay” of the Cayman company. We thus evaluated the COX-1 and COX-2 inhibition by the AFA extract (both the water soluble part in water, and the lipid soluble in acetone; range 25-200 μg/ml); by the pure PC (0.03-3 μM) and PCB (0-15 μM). The results are shown in FIG. 29, presenting the graphic of the percent activity of COX-1 and COX-2 at the different concentrations of AFA extract, PC and PCB.

Jurkat cells = test: Intracellular dichlorofluorescein fluorescence in Jurkat cells oxidized with H2O2; assay type: cell-based
Method: Starting from the Basic extract, and following the methodology already described, we have purified the AFA-phycocyanin, with its C-PC/PEC complex, to test its antioxidant properties on live cultured cells. The Jurkat cells (immortalized line of leucemia T-lymphocytes) have been subjected to oxidative stress with 500 μM H2O2, together or without increasing dosages of AFA-PC and PCB. The fluorescence emitted by the intracellular probe (dichlorofluorescein), following oxydation from H2O2, has been recorded after 30 minutes of incubation with H2O2 through a fluorimeter (exc. at 492 nm and emission at 520 nm). By incubating cells with both AFA-PC (range 0.1-10 μM) and 500 μM H2O2 for 30 minutes we observe a dose-dependent protective effect with a reduction of intracellular fluorescence induced by H2O2, with an IC50 of 0.5 μM, and a 100% inhibition (non-oxidized cells) at 10 μM (FIG. 13).
The antioxidant properties of the whole PC, composed of C-PC and PEC, resides in its chromophores, which are phycocyanibilin (PCB) for C-PC and both PCB and PVB (phycoviolobilin) for PEC. We have purified the C-PC chromophore PCB, to test it on cultured cells oxidized with H2O2 (range FCB 0.1-40 μM). Also in this case we observe a dose-dependent antioxidant effect with an IC50 of 0.5 μM, and a 100% inhibition (non-oxidized cells) at 40 μM (FIG. 13).
Most importantly, to evaluate the cellular absorption of PC and PCB, both compounds have been pre-incubated for 2 hrs. with the cells; afterwards, the medium has been washed, to exclude any unabsorbed PC and PCB, and the cells have been oxidized for 30 min. with H2O2. As shown by the FIG. 14, there is a dose-dependent inhibition of intracellular fluorescence. This means that the cell is able to retain both antioxidant molecules, either in the membrane or in the cytoplasm.

[3] = system: human plasma oxidized by CuCl2; test: MDA (TBA test) formation in human plasma oxidized by CuCl2; conditions: read-out: IC50, metal-induced oxidation of plasma lipids (MDA); plasma incubated 2 hours at 37° C. with CuCl2 (FIG. 9A panel B)
COX-1 = target: T2, COX-1 (Ovis aries, UniProt P05979); test: COX Inhibitor Screening Assay (Cayman), COX-1; assay type: biochemical
T2 construct: purchased Cayman
T2 sequence (P05979 25-600): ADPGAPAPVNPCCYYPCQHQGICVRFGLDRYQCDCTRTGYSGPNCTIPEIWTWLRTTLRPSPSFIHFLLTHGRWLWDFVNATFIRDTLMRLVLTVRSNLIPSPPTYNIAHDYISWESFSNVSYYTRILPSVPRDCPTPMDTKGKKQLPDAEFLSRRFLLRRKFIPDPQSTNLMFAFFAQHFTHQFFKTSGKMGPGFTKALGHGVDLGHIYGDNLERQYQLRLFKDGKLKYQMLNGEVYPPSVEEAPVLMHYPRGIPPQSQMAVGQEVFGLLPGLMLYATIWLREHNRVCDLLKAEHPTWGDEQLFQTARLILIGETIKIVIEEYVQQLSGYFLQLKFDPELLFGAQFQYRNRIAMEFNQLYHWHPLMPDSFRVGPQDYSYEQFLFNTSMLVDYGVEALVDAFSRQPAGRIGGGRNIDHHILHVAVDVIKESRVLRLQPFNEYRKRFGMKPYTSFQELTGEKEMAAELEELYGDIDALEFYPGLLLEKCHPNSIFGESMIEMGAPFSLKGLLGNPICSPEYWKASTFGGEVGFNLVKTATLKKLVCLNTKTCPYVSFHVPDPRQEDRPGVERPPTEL
Method: as §1

Compound: Oc1cc(O)c2c(c1)O[C@H](c1ccc(O)c(O)c1)[C@@H](O)C2 [(+)-catechin]
- ORACFL value expressed per mg [1]: 23.3 μmol Trolox/mg compound
- ORACFL value [2]: 6.76 μmol Trolox/μmol compound

Compound: O=C1O[C@H]([C@@H](O)CO)C(O)=C1O [AA]
- ORAC value [1]: 0.75 Trolox equiv.

Compound: N[C@@H](CCC(=O)N[C@@H](CS)C(=O)NCC(=O)O)C(=O)O [GSH, reduced glutathione]
- ORAC value [1]: 0.57 Trolox equiv.

Compound: O=c1c(O)c(-c2ccc(O)c(O)c2)oc2cc(O)cc(O)c12 [quercetin]
- ORACFL value expressed per mg [1]: 24.0 μmol Trolox/mg compound
- ORACFL value [2]: 7.28 μmol Trolox/μmol compound

Compound: phycocyanobilin [PCB]
- COX-2 inhibition (COX-2): scarcely inhibitor of the COX-2
- inhibition of intracellular fluorescence (Jurkat cells; 40 μM, together with H2O2): 100%
- oxidative effect (increase of intracellular fluorescence) (Jurkat cells; incubated 30 minutes with cells without H2O2): do not have any oxidative effect
- oxidative effect (increase of intracellular fluorescence) (Jurkat cells; incubated 2 hrs. with cells): did not produce any oxidative effect
- IC50 (Jurkat cells; incubated together with 500 μM H2O2 for 30 minutes (FIG. 13), read-out: IC50, reduction of intracellular fluorescence induced by H2O2): 500 nM
- protection, absorption test (Jurkat cells; pre-incubated 2 hrs., medium washed, then H2O2 30 min (FIG. 14)): more than 90%
- IC50 (Jurkat cells; pre-incubated 2 hrs., medium washed, then H2O2 30 min (FIG. 14), read-out: IC50, inhibition of intracellular fluorescence, absorption test): 1900 nM
- IC50 [3]: ~160 nM
- ORAC value expressed per mg [1]: 37.0 μmol Trolox/mg
- ORAC value [1]: 22.18 Trolox equiv.
- effect on COX-1 activity (COX-1): increases the COX-1 activity
